Read-outs that look alike come from different tables or passages of the source. One block for each compound: values may come before it.
Experiments:
[1] = Randomized double blind controlled study of change in lipid profile (3 months); assay type: in vivo, human; conditions: simvastatin 20 mg daily for 3 months; 198 subjects alone, 406 as multi-component composition
Description: The multi-component pharmaceutical composition included The change in lipid profile as compared to baseline is provided in a table below.

[2] = Clinical trial for efficacy: reduction in sitting systolic and diastolic blood pressure; assay type: in vivo, human; set-up: Effect on Systolic B.P., Hypertensive / Effect on Systolic B.P., Non hypertensive / Effect on Diastolic B.P., Hypertensive / Effect on Diastolic B.P., Non hypertensive / Effect on Systolic B.P., Diabetics / Effect on Systolic B.P., Non diabetics / Effect on Diastolic B.P., Diabetics / Effect on Diastolic B.P., Non diabetics: unit not given here
Procedure: Reduction in sitting diastolic and sitting systolic blood pressure was measured in a cohort of population who received multi-component pill (n=392) or a pill containing three antihypertensive drugs (n=196).

[3] = Cross over randomized two period pharmacokinetic study, single MCP (test) vs market single ingredient pill (reference)
[4] = cited from earlier work
Urinary thromboxane = Urinary thromboxane levels (antiplatelet activity); assay type: in vivo, human; conditions: group taking aspirin vs group taking MCP
[5] = human, in vivo
[6] = Randomized controlled study of heart rate over 24 hrs in normal healthy volunteers; assay type: in vivo; conditions: seen at 4.5 hrs; 16 in each group; heart rate measured for 24 hrs
[7] = multi-component pill n=392, hydrochlorothiazide n=199, two drugs n=207,205,209, three drugs n=196
[8] = analyte of the table title after market single ingredient pill (reference)
[9] = analyte of the table title after single MCP (test)
[10] = MCP (test) / single ingredient pill (reference)

Structure (SMILES): CCC(C)(C)C(=O)O[C@H]1C[C@@H](C)C=C2C=C[C@H](C)[C@H](CC[C@@H]3C[C@@H](O)CC(=O)O3)[C@H]21 [Simvastatin]
change in Apo B compared to baseline [1]: 20.37%
change in LDL compared to baseline [1]: 26.83%
change in Total Cholesterol compared to baseline [1]: 17.95%

Structure (SMILES): NS(=O)(=O)c1cc2c(cc1Cl)NCNS2(=O)=O [Hydrochlorothiazide]
Effect on Diastolic B.P., Diabetics ([2]; diabetics): 1.5
Effect on Systolic B.P., Diabetics ([2]; diabetics): 3.4
Effect on Diastolic B.P., Hypertensive ([2]; hypertensives): 2.5
Effect on Systolic B.P., Hypertensive ([2]; hypertensives): 3.0
Mean change in sitting diastolic blood pressure [2, 7]: 1.2 mm of Hg
Mean change in sitting systolic blood pressure [2, 7]: 2.2 mm of Hg
Effect on Diastolic B.P., Non diabetics ([2]; nondiabetics): 1.1
Effect on Systolic B.P., Non diabetics ([2]; nondiabetics): 1.6
Effect on Diastolic B.P., Non hypertensive ([2]; nonhypertensives): 0.5
Effect on Systolic B.P., Non hypertensive ([2]; nonhypertensives): 1.8
Dizziness and hypotension (serious adverse leading to discontinuation) (Thiazide n=199, MCP n=392): 3.3%
All reported Adverse events (three month trial, groups of 205 (aspirin, thiazide, simvastatin alone), 412 (multi-component pill)): 161
Ln AUC0-t, Ref. Geo LSM [3, 8]: 621.884 ng·h/mL
Ln AUCo-∞, Ref. Geo LSM [3, 8]: 668.583 ng·h/mL
Ln Cmax, Ref. Geo LSM [3, 8]: 92.388 ng/mL
Ln AUC0-t, Test Geo LSM [3, 9]: 579.174 ng·h/mL
Ln AUCo-∞, Test Geo LSM [3, 9]: 619.693 ng·h/mL
Ln Cmax, Test Geo LSM [3, 9]: 93.437 ng/mL

Structure (SMILES): COC(=O)C1=C(C)NC(C)=C(C(=O)OCC(C)C)C1c1ccccc1[N+](=O)[O-] (centres unmarked) [Nisoldipine]
increase of AUC of telmisartan ([4]; co-administered drug raises telmisartan AUC): 132%

Structure (SMILES): CC(=O)Oc1ccccc1C(=O)O [Aspirin, acetylsalicylic acid]
change in SGPT by two fold, S. Potassium above 5.5 and increase in serum creatinine by 50% (aspirin 100 mg (n=172) compared with MCP (n=334), daily for three months): marginally higher
All reported Adverse events (human, in vivo, 3 months): 163
Gastritis/dyspepsia (serious adverse leading to discontinuation) (human, in vivo, 3 months): 1.4%
Urinary thromboxane levels (Urinary thromboxane): identical

Ln AUC0-t, Ratio (T/R) * 100 [3, 10]: 117.54
Ln AUCo-∞, Ratio (T/R) * 100 [3, 10]: 117.82
Ln Cmax, Ratio (T/R) * 100 [3, 10]: 99.48
Structure (SMILES): O=C(O)c1ccccc1O [Salicylic Acid]

Ln AUC0-t, Ratio (T/R) * 100 [5]: 105.31
Ln AUCo-∞, Ratio (T/R) * 100 [5]: 105.93
Ln Cmax, Ratio (T/R) * 100 [5]: 117.50
Structure (SMILES): C[C@H](N[C@@H](CCc1ccccc1)C(=O)O)C(=O)N1[C@H](C(=O)O)C[C@@H]2CCC[C@@H]21 [Ramiprilat]

Ln AUC0-t, Ratio (T/R) * 100 [5]: 109.98
Ln AUCo-∞, Ratio (T/R) * 100 [5]: 109.09
Ln Cmax, Ratio (T/R) * 100 [5]: 118.51
Structure (SMILES): CCOC(=O)[C@H](CCc1ccccc1)N[C@@H](C)C(=O)N1[C@H](C(=O)O)C[C@@H]2CCC[C@@H]21 [Ramipril]
Cough (serious adverse leading to discontinuation) (human, in vivo, 3 months): 1.4%

Structure (SMILES): COc1ccc([C@@H]2Sc3ccccc3N(CCN(C)C)C(=O)[C@@H]2OC(C)=O)cc1 [Diltiazem]
increase of AUC of simvastatin (in words) ([4]; co-administered drug raises simvastatin AUC): two fold

Structure (SMILES): CC(C)NCC(O)COc1ccc(CC(N)=O)cc1 (centres unmarked) [Atenolol]
Peak decrease in heart rate [6]: 5.38
